# The source made the active and inactive calls. No cut-off for these calls is given here.
# Columns and labels:
# Staphylococcus aureus [1] = experiment: Antibacterial activity against Staphylococcus aureus assessed as bacterial growth inhibition measured after 24 hrs by broth dilution assay; format: functional, organism-based; conditions: for IC50: 24 h; for MIC: time 24 hrs
# Escherichia coli [2] = experiment: Antibacterial activity against Escherichia coli assessed as bacterial growth inhibition measured after 24 hrs by broth dilution assay; format: functional, organism-based; conditions: for IC50: 24 h; for MIC: time 24 hrs
# [3] = Cytotoxicity against human HEK293 cells assessed as viable cells at 50 uM after 48 hrs by calcein-AM staining based fluorescence analysis; format: cell-based; conditions: read-out: Activity
# Staphylococcus aureus [4] = experiment: Antibacterial activity against Staphylococcus aureus assessed as zone of inhibition at 25 to 100 ug by disc diffusion method; format: functional, organism-based; conditions: dose 25-100 µg
# Cell membrane [5] = experiment: Induction of cell membrane permeabilization in Escherichia coli assessed as increase in propidium iodide intake at MIC by propidium iodide staining based assay; conditions: TDE = time-dependent effect
# Escherichia coli [6] = experiment: Antibacterial activity against Escherichia coli assessed as minimum concentration required to decrease 90% bacteria measured after 24 hrs by broth dilution assay; format: functional
# Staphylococcus aureus [7] = experiment: Antibacterial activity against Staphylococcus aureus assessed as minimum concentration required to decrease 90% bacteria measured after 24 hrs by broth dilution assay; format: functional
# Cell membrane [8] = experiment: Induction of cell membrane permeabilization in Staphylococcus aureus assessed as increase in propidium iodide intake at MIC by propidium iodide staining based assay; conditions: time 48.0 hrs, TDE = time-dependent effect
# Escherichia coli [9] = experiment: Antibacterial activity against Escherichia coli assessed as zone of inhibition at 25 to 100 ug by disc diffusion method; format: functional, organism-based; conditions: dose 25-100 µg
Activity (Cell membrane [5]),MIC (Staphylococcus aureus [1]) [µM],MIC (Escherichia coli [2]) [µM],Activity (Cell membrane [8]),Structure (SMILES),IC50 (Staphylococcus aureus [1]) [µM],IC50 (Escherichia coli [2]) [µM],"viability at 48 h, 50 µM [3] [%]",inhibition (Staphylococcus aureus [4]),MBC (Escherichia coli [6]) [µM],MBC (Staphylococcus aureus [7]) [µM],inhibition (Escherichia coli [9])
,,,,CC1(C)S[C@@H]2[C@H](NC(=O)[C@H](N)c3ccccc3)C(=O)N2[C@H]1C(=O)O [AMPICILLIN],3.8,33.6,,,,,
Tde,50,25,Tde,COc1cc(/C=C\C(=O)NCCCNCc2cccc(CNCCCNC(=O)/C=C\c3cc(OC)c(Br)cc3Br)c2)c(Br)cc1Br,13.9,37.3,> 95,Active,25,50,Active
,> 200,> 200,,COc1c(Br)cc(/C=C/C(=O)NCCCNCc2cccc(CNCCCNC(=O)/C=C/c3cc(Br)c(OC)c(Br)c3)c2)cc1Br,,,,,,,
,> 200,> 200,,COc1c(Br)cc(Br)c(/C=C/C(=O)NCCCNCc2cccc(CNCCCNC(=O)/C=C/c3c(Br)cc(Br)c(OC)c3Br)c2)c1Br,,,,,,,

# Reference: ChEMBL document CHEMBL4732248, “Synthesis and antibacterial activities of marine natural product ianthelliformisamines and subereamine synthetic analogues” (Bioorg Med Chem Lett, 2021)
